Test results published in US9708628B2, “Cationic lipid having improved intracellular kinetics” (NOF CORPORATION, priority 2011, dated 2017).
Entries after “also recorded” stand apart in the source; their conditions may differ.

Tests used:
[1] = Particle size and surface potential of pDNA-encapsulating MENDs, dynamic light scattering (Zetasizer Nano); format: physicochemical
Procedure: A solution of pDNA encoding luciferase gene and protamine (CALBIOCHEM) solution were diluted with 10 mM HEPES buffer to 0.3 mg/mL and […], respectively. While stirring 0.3 mg/mL pDNA (125 μL), 0.24 mg/mL protamine (125 μL) was added dropwise in small portions to prepared an electrostatic complex of protamine and pDNA (N/P ratio=1.2) as a core of the vector. In the method described in the following (2), 10 mM HEPES buffer (pH 5.3) was used and, in the method described in (3), 10 mM HEPES buffer (pH 7.4) was used.
A lipid solution in ethanol was prepared by mixing 5 mM cationic lipid, 5 mM phospholipid and 5 mM cholesterol (Chol) at desired ratios to achieve 165 nmol total lipid in an Eppendorf tube, further adding various PEG lipids (1 mM solution in ethanol) in an amount corresponding to 3 mol % of the total lipid, and adding ethanol to achieve a total volume of 100 μL. While stirring the lipid solution in a vortex mixer, 100 μL of the nucleic acid electrostatic complex (10 mM HEPES; pH 5.3) prepared in [Experimental Example 1] (1) was quickly added, and thereafter 10 mM HEPES buffer (1.8 mL, adjusted to pH 5.3) was added to dilute the mixture to an ethanol concentration of 5%. The mixture was concentrated to about 50 μL by ultrafiltration using Amicon Ultra 4 (Millipore) under centrifugation conditions (room temperature, 2267 rpm, 20 min). Thereafter, it was diluted to 4 mL with 100 mM HEPES buffer (adjusted to pH 7.4), and again concentrated by centrifugation (2267 rpm, 20 min) under room temperature conditions. Finally, it was diluted with 10 mM HEPES buffer (pH 7.4) to a desired lipid concentration.
A solution of each lipid in chloroform (5 mM DOTAP 24.75 μL, 5 mM DOPE 33 μL, 5 mM Chol 24.75 μL) were mixed in a glass test tube at DOTAP:DOPE:Chol=3:4:3 to achieve 412.5 nmol total lipid. Ethanol was added to a total amount of 250 μL, and the mixture was dried under reduced pressure in a desiccator. The solvent was evaporated to give a lipid thin film. To the lipid thin film was added 250 μL of the gene electrostatic complex (in 10 mM HEPES; pH 7.4) prepared in [Experimental Example 1] (1) to a total lipid concentration of 1.65 mM, and the mixture was stood at room temperature for 10 min to allow for hydration, and sonicated by a sonicator (AIWA MEDICAL […] CO., LTD.) for 1 min.
The particle size and the surface potential were measured by the dynamic light scattering method (Zetasizer Nano; Malve Rn). The particle size and the surface potential of the various MENDs prepared by the preparation method of [Experimental Example 1] are shown in Table 3. The charge of B-2 and DODAP at physiological pH was in a preferable mode of −10 to +10 mV, whereas that of B-2-1 was +12.3, which is not less than +10 mV.
(1) MEND having a composition of B-2-4 (Example 4):DOPE:Chol=3:3:4 or B-2-5 (Example 5):POPE:Chol=3:4:3 was prepared according to the method described in [Experimental Example 1] (1) and (2).
The particle size and the surface potential were measured by the dynamic light scattering method (Zetasizer Nano; Malvern). The particle size and the surface potential of the various MENDs prepared by the preparation method of [Experimental Example 1] are shown in Table 4.

HT1080 cells = test: Gene expression by MEND (luciferase assay, RLU/mg protein); format: cell-based; settings: for gene expression activity: B-2-4:DOPE:Chol=3:3:4, B-2-5:POPE:Chol=3:3:4, B-2:SOPE:Chol=5:3:2, PEG2000-DMG; for gene expression activity (luciferase activity per cell protein): cationic lipid:SOPE:Chol=3:4:3, PEG2000DSG, pDNA 0.4 μg/well, 24 hr
Procedure: Using B-2 (Example 1), B-2-1 (Comparative Example 1), and DODAP (Comparative Example 2) as cationic lipids, MENDs having a composition of cationic lipid:SOPE:Chol=3:4:3 were prepared by the method described in [Experimental Example 1] (2). For the preparation, PEG2000DSG was used as PEG lipid, and MEND solutions corresponding to 0.55 mM of the lipid concentration were prepared. For cationic MEND, lipids having a composition of DOTAP:DOPE:Chol:=3:4:3 were used, and the cationic MEND was prepared according to the method described in [Experimental Example 1] (3).
HT1080 cells were plated on a 24-well plate at 4×10^4 cells/500 μL/well 24 hr before, various MENDs were diluted with DMEM (FBS 10%+) to a pDNA amount of 0.4 μg/500 μL/well and transfected. 24 hr later, the cells were washed with PBS(−) (500 μL), 1× Lysis buffer was added to each well by 75 μL, and the mixture was stood at −80° C. for 30 min or longer. The frozen 24-well plate was thawed on ice, the cells were detached with a cell scraper, and the total amount thereof was transferred into an Eppendorf tube and centrifuged under the conditions of 15000 rpm, 4° C., 5 min. The supernatant (50 μL) was recovered in a different Eppendorf tube, and used for luciferase assay and BCA assay.
20 μL thereof was mixed with a Luciferase assay substrate (50 μL), and the luciferase activity in a given time was measured by a luminometer. The obtained lysate was diluted 5-fold with DDW to achieve 25 μL total volume. Thereto was added BCA Protein Assay Reagent (200 μL), and the mixture was stood at 37° C. for 30 min. Thereafter, the absorbance at 562 nm was measured, and the protein amount of the sample was calculated from the absorbance of a BSA solution having a known concentration. The luciferase activity (RLU) was adjusted by dividing with protein amount (mg), and the luciferase activity per cell protein amount (RLU/mg protein) was calculated.
Using B-2 (Example 1), B-2-2 (Example 2), and B-2-3 (Example 3) as cationic lipids, MENDs having a composition of cationic lipid:SOPE:Chol=3:4:3 were prepared by the method described in [Experimental Example 1] (2). For the preparation, PEG2000DSG was used as PEG lipid, and MEND solutions corresponding to 0.55 mM of the lipid concentration were prepared. The gene expression was evaluated by the method described in [Example 4] (2).
Using compositions of B-2-4 (Example 4):DOPE:Chol=3:3:4, B-2-5 (Example 5):POPE:Chol=3:3:4, B-2 (Example 1):SOPE:Chol=5:3:2 as lipids, MENDs were prepared according to [Experimental Example 1](1) and (2). For the preparation, PEG2000-DMG was used as PEG lipid, and MEND solutions corresponding to 0.55 mM of the lipid concentration were prepared.
The gene expression activity was evaluated by the method described in [Experimental Example 4] (2).

[2] = pDNA MEND, cationic lipid:DOPE:Chol = 3:3:4
[3] = pDNA MEND, cationic lipid:SOPE:Chol = 3:4:3
[4] = pDNA MEND, cationic lipid:SOPE:Chol = 5:3:2
[5] = pDNA MEND, DOTAP:DOPE:Chol = 3:4:3
[6] = pDNA MEND, cationic lipid:POPE:Chol = 3:4:3

PDI [1, 3]	size (nm) [1, 3]	zeta (mV) [1, 3]	PDI [1, 4]	size (nm) [1, 4]	zeta (mV) [1, 4]	Compound	gene expression activity (HT1080 cells)	gene expression activity (luciferase activity per cell protein) (HT1080 cells)	further results
–	–	–	–	–	–	CC1=C(/C=C/C(C)=C/C=C/C(C)=C/C(=O)OCCCN(C)CCSSCCN(C)CCCOC(=O)/C=C(C)/C=C/C=C(C)/C=C/C2=C(C)CCCC2(C)C)C(C)(C)CCC1 [Example B-2-4]	significantly higher than the activity of B-2 and B-2-5	–	PDI [1, 2]: 0.12; size (nm) [1, 2]: 146.7 nm; zeta (mV) [1, 2]: −7.22 mV
0.093	151.1 nm	−3.18 mV	0.106	165.6 nm	4.13 mV	CCCCCCCC/C=C\CCCCCCCC(=O)OCC(CN(C)C)OC(=O)CCCCCCC/C=C\CCCCCCCC (stereo not shown) [DODAP, reference compound]	–	–	–
–	–	–	–	–	–	CCCCCCCC/C=C\CCCCCCCC(=O)OCC(C[N+](C)(C)C)OC(=O)CCCCCCC/C=C\CCCCCCCC (stereo not shown) [DOTAP, reference compound]	–	–	surface potential of MEND ([1]; pDNA MEND using DOTAP): about +50 mV; PDI [1, 5]: 0.295; size (nm) [1, 5]: 235.8 nm; zeta (mV) [1, 5]: 57.9 mV
0.07	150.3 nm	12.4 mV	0.084	147.8 nm	12.3 mV	CCCCCCCCCCCCCC(=O)OCCCN(C)CCCCCCN(C)CCCOC(=O)CCCCCCCCCCCCC [Example B-2-1, reference compound]	–	exceeded that of a conventionally-known cationic lipid, DODAP	charge at physiological pH ([1]; pDNA MEND): +12.3 mV
–	–	–	–	–	–	Cc1c(C)c2c(c(C)c1OC(=O)CCC(=O)OCCCN(C)CCSSCCN(C)CCCOC(=O)CCC(=O)Oc1c(C)c(C)c3c(c1C)CCC(C)(CCCC(C)CCCC(C)CCCC(C)C)O3)CCC(C)(CCCC(C)CCCC(C)CCCC(C)C)O2 (stereo not shown) [Example B-2-5]	equivalent to the activity of B-2	–	PDI [1, 6]: 0.15; size (nm) [1, 6]: 131.7 nm; zeta (mV) [1, 6]: −9.35 mV

Compound	PDI [1, 3]	size (nm) [1, 3]	zeta (mV) [1, 3]	PDI [1, 4]	size (nm) [1, 4]	zeta (mV) [1, 4]	gene expression activity (HT1080 cells)	gene expression activity (luciferase activity per cell protein) (HT1080 cells)	further results
CCCCCCCCCCCCCC(=O)OCCCN(C)CCSSCCN(C)CCCOC(=O)CCCCCCCCCCCCC [Example B-2]	0.14	156.3 nm	−0.08 mV	0.11	168.9 nm	−2.95 mV	–	exceeded that of a conventionally-known cationic lipid, DODAP; also recorded: significantly higher than that of MEND prepared from B-2-1; also recorded: equivalent to that of DOTAP	gene transfer activity divided by the intracellular uptake amount (HT1080 cells; FIG. 4): high as compared to conventional DOTAP, DODAP and B-2-1
